Test results taken from US4370459A, “Polymerizing unsaturated monomers with gem-diperoxyester catalyst” (priority 1980, dated 1983).

Tests used:
[1] = Suspension polymerization of vinyl chloride monomer in pop bottles with gem-diperoxyester initiators
Experimental: A series of polymerizations was performed to illustrate the improved efficiencies of the new compounds as initiators of vinyl chloride monomer. 2,2-Bis(2-ethyl hexanoylperoxy)butane (KP-A) is one compound that can be made by the procedures of the above referenced Japanese patents and was included as typical of the prior art.
The data in Table III were obtained in the following manner:
The suspension polymerizations were performed in pop bottles using uninhibited monomer. Duplicate bottles were analyzed at each polymerization time interval. The following table lists some general information about the polymerization procedure used.
After the desired amounts of reactants were added to the pop bottles, they were capped, the contents almost melted, and the bottles placed in a rotating constant temperature bath at the temperatures and for the times shown in Table III. The bottles were frozen before venting-off excess monomer. The polymer was filtered, washed, and dried. All initiator concentrations shown have been corrected for purity.

[2] = Half-lives of gem-diperoxyesters (10 hour half-life temperature); assay type: physicochemical; conditions: 0.2M in benzene
Text: HALF-LIFES OF VARIOUS GEM-DIPEROXYESTERS

[3] = Hot block gel tests with polyester resin (curing); conditions: 0.75 % Wt used
Experimental: The unsaturated polyester resins cured by the present process comprises those polyesters described in U.S. Pat. No. 4,129,613, the disclosure thereof being incorporated by reference herein. The following Table IV is typical of the improved results obtained with the present compounds.
HOT BLOCK GEL TESTS WITH POLYESTER RESIN
USING VARIOUS GEM-DIPEROXYESTERS
Resin: USS Chemical MR-941 (Isophthalic)
Block Temp.: 180 ± 1° F. (82° C.)
Peroxide Concentration Corrected for Purity, […]

[4] = SET 1, 7 hrs. at 22° C., 0.20 % Wt. used
[5] = SET 2, 7 hrs. at 40° C., 4.01 × 10^-4 moles initiator/100g VCM
[6] = SET 3, 6 hrs. at 50° C., 2.50 × 10^-4 moles initiator/100g VCM
[7] = SET 4, 5.5 hrs. at 55° C., 1.25 × 10^-4 moles initiator/100g VCM
[8] = SET 4, 5.5 hrs. at 55° C., 1.75 × 10^-4 moles initiator/100g VCM
[9] = SET 5, 5 hrs. at 60° C., 1.25 × 10^-4 moles initiator/100g VCM
[10] = SET 5, 5 hrs. at 60° C., 1.75 × 10^-4 moles initiator/100g VCM
[11] = SET 2, block temp. 180 ± 1° F. (82° C.)
[12] = SET 1, block temp. 180 ± 1° F. (82° C.)
[13] = SET 1, 7 hrs. at 22° C., 0.10 % Wt. used
[14] = SET 3, 6 hrs. at 50° C., 1.50 × 10^-4 moles initiator/100g VCM

Compound | % Conversion [1, 4] | % Conversion [1, 5] | % Conversion [1, 6] | % Conversion [1, 7] | % Conversion [1, 8] | % Conversion [1, 9] | % Conversion [1, 10] | 10 Hour Half-Life Temperature [2] | Peak Temp (exotherm) [3, 11] | Peak Temp (exotherm) [3, 12] | % Conversion [1, 13] | % Conversion [1, 14]
CCCC(C)C(=O)OOC(CC)(CC)OOC(=O)C(C)CCC (centres unmarked) [KP-G, 3,3-bis(2-methylpentanoylperoxy)pentane] | 1.6% | 67.3% | 88.5% | 72.8% | 86.2% | 72.6% | 85.9% | – | – | – | – | –
CCCCC(CC)C(=O)OOC(C)(CC)OOC(=O)C(CC)CCCC (centres unmarked) [KP-A, 2,2-Bis(2-Ethyl Hexanoylperoxy)Butane, reference compound] | 5.0% | 45.9% | 75.85% | 53.4% | 72.1% | 67.8% | 83.2% | 43.7 °C | 275 °F. | – | – | –
CC(C)(C)C1CCC(OC(=O)OOC(=O)OC2CCC(C(C)(C)C)CC2)CC1 (centres unmarked) [DBCPD, Di4-t-butyl cyclohexylperoxydicarbonate, reference compound] | – | – | – | – | – | – | – | – | 260 °F. | 244 °F. | – | –
CCC(CC)(OOC(=O)C(C)C)OOC(=O)C(C)C [KP-E, 3,3-bis(2-methylpropionylperoxy)pentane] | 0.5% | 39.6% | 74.4% | – | 76.1% | 71.5% | 86.7% | – | – | – | – | –
CCC(CC)C(=O)OOC(C)(CC(C)(C)O)OOC(=O)C(CC)CC [KP-I, 2,2-bis(2-ethylbutanoylperoxy)-4-hydroxy-4-methylpentane] | – | – | – | – | 66.1% | – | 65.4% | – | – | – | – | –
CCC(CC)(OOC(=O)C(C)(C)C)OOC(=O)C(C)(C)C [KP-B, 3,3-bis(pivaloylperoxy)pentane] | – | 90.4% | 51.8% | – | – | – | – | 24 °C | – | 221 °F. | 52.2% | –
CCC(CC)C(=O)OOC(CC)(CC)OOC(=O)C(CC)CC [KP-F, 3,3-Bis(2-Ethyl Butanoylperoxy)Pentane] | 4.3% | 88.3% | 92.5% | 74.1% | 85.9% | 67.8% | 81.8% | 40 °C | 271 °F. | – | – | 82.5%
3,3-bis(neodecanoylperoxy)pentane [KP-C] | – | 63.1% | 38.0% | – | – | – | – | 23.3 °C | – | 225 °F. | 27.8% | –
CCCCC(CC)C(=O)OOC(CC)(CC)OOC(=O)C(CC)CCCC (centres unmarked) [KP-D, 3,3-bis(2-ethylhexanoylperoxy)pentane] | 10.7% | 75.4% | 89.1% | 69.6% | 84.2% | 70.5% | 83.8% | 39.7 °C | 260 °F. | 249 °F. | – | 79.1%
CCCCC(CC)C(=O)OOC(C)(CC(C)(C)O)OOC(=O)C(CC)CCCC (centres unmarked) [KP-H, 2,2-bis(2-ethylhexanoylperoxy)-4-hydroxy-4-methylpentane] | – | – | – | – | 63.9% | – | 58.1% | – | – | – | – | –
